# In patent US9156827B2, “Anticancer agent” (THE UNIVERSITY OF TOKYO, priority 2010, dated 2015):
# Where a name gives a salt, the structure may show the parent alone.
# Target: pim-1 kinase (Homo sapiens, UniProt P11309)
# Experiment: Measurement of pim-1 kinase inhibitory activity (fluorescent substrate peptide, capillary electrophoresis)
# Assay type: biochemical
# Conditions: 0.1 μM of each compound, 30 μM ATP, 1.5 μM substrate peptide, room temperature 2 hours
# Experimental: Measurement of Pim-1 Kinase Inhibitory Activity
# The result of the reaction was determined by quantifying the substrate and the phosphorylated reaction product separated by capillary electrophoresis based on difference in charges of the substances (EZ Reader II, Caliper Life Sciences, was used).
# Chain of pim-1 kinase (P11309 whole entry): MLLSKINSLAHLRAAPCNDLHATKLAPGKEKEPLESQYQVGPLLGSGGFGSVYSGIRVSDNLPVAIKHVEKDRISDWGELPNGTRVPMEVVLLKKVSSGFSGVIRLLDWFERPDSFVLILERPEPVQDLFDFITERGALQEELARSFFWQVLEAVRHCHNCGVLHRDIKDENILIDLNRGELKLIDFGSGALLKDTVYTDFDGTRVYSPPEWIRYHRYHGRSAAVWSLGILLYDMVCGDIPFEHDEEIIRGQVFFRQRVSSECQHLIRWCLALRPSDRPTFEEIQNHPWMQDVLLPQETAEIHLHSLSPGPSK
SMILES,inhibition at 0.1 µM (Table 1) [%],inhibition at 0.1 µM (Table 2) [%],also measured
"CC(=O)NCc1ccc2[nH]cc(/C=C3\Oc4c(ccc(O)c4CN4CCNCC4)C3=O)c2c1 [Compound A20, (Z)—N-[(3-{[6-Hydroxy-3-oxo-7-(piperazin-1-ylmethyl)benzofuran-2(3H)-ylidene]methyl}-1H-indol-5-yl)methyl]acetamide dihydrochloride]",62,,
"COc1ccc2c(c1CN1CCNCC1)O/C(=C\c1c[nH]c3ncccc13)C2=O [Compound A53, (Z)-2-[(1H-Pyrrolo[2,3-b]pyridin-3-yl)methylene]-6-methoxy-7-(piperazin-1-ylmethyl)benzofuran-3(2H)-one]",98,,
"Cc1ccc2c(/C=C3\Oc4c(ccc(O)c4CN4CCNCC4)C3=O)c[nH]c2n1 [Compound A48, (Z)-6-Hydroxy-2-[(6-methyl-1H-pyrrolo[2,3-b]pyridin-3-yl)methylene]-7-(piperazin-1-ylmethyl)benzofuran-3(2H)-one trihydrochloride]",97,,
"CNCc1cccc2c(/C=C3\Oc4c(ccc(O)c4CN4CCNCC4)C3=O)c[nH]c12 [Compound A28, (Z)-6-Hydroxy-2-({7-[(methylamino)methyl]-1H-indol-3-yl}methylene)-7-(piperazin-1-ylmethyl)benzofuran-3(2H)-one trihydrochloride]",10,,
"COc1ccc2c(c1CN1CCOCC1)O/C(=C\c1c[nH]c3ncccc13)C2=O [Compound A54, (Z)-2-[(1H-Pyrrolo[2,3-b]pyridin-3-yl)methylene]-6-methoxy-7-(morpholinomethyl)benzofuran-3(2H)-one]",72,,
"O=C1/C(=C/c2c[nH]c3ccccc23)Oc2c1ccc(O)c2CN1CCC(O)CC1 [Compound A6, (Z)-2-[(1H-Indol-3-yl)methylene]-6-hydroxy-7-[(4-hydroxypiperidin-1-yl)methyl]benzofuran-3(2H)-one]",15,,
C[C@@H]1CN(Cc2c(O)ccc3c2O/C(=C\c2n[nH]c4ccccc24)C3=O)C[C@H](C)N1 [Compound B2],,,Pim-1 kinase inhibitory activity (%) (Table 2): 61%
"CN1CCN(Cc2c(O)ccc3c2O/C(=C\c2c[nH]c4ncccc24)C3=O)CC1 [Compound A43, (Z)-2-[(1H-Pyrrolo[2,3-b]pyridin-3-yl)methylene]-6-hydroxy-7-[(4-methylpiperazin-1-yl)methyl]benzofuran-3(2H)-one]",56,,

# Second part, led by results:
inhibition at 0.1 µM (Table 1) [%],inhibition at 0.1 µM (Table 2) [%],SMILES,also measured
,95,"COc1ccc2c(c1C(C)N1CCNCC1)O/C(=C\c1n[nH]c3ccccc13)C2=O (centres unmarked) [Compound B20, (Z)-2-[(1H-Indazol-3-yl)methylene]-6-methoxy-7-[1-(piperazin-1-yl)-ethyl]benzofuran-3(2H)-one]",
,90,"O=C1/C(=C/c2n[nH]c3ccc(OC(F)(F)F)cc23)Oc2c1ccc(O)c2CN1CCNCC1 [Compound B12, (Z)-6-Hydroxy-7-(piperazin-1-ylmethyl)-2-{[5-(trifluoromethoxy)-1H-indazol-3-yl]methylene}benzofuran-3(2H)-one]",
,87,"COc1ccc2[nH]nc(/C=C3\Oc4c(ccc(O)c4CN4CCNCC4)C3=O)c2c1 [Compound B11, (Z)-6-Hydroxy-7-(piperazin-1-ylmethyl)-2-[(5-methoxy-1H-indazol-3-yl)methylene]benzofuran-3(2H)-one]",
,93,"O=C1/C(=C/c2n[nH]c3ccc(Cl)cc23)Oc2c1ccc(O)c2CN1CCNCC1 [Compound B9, (Z)-6-Hydroxy-7-(piperazin-1-ylmethyl)-2-[(5-chloro-1H-indazol-3-yl)methylene]benzofuran-3(2H)-one]",
,90,"O=C1/C(=C/c2n[nH]c3ccc(Cl)cc23)Oc2c1cc(Cl)c(O)c2CN1CCNCC1 [Compound B15, (Z)-5-Chloro-2-[(5-chloro-1H-indazol-3-yl)methylene]-6-hydroxy-7-(piperazin-1-ylmethyl)benzofuran-3(2H)-one]",
,39,"COc1ccc2c(c1CN1CCOCC1)O/C(=C\c1n[nH]c3ccccc13)C2=O [Compound B33, (Z)-2-[(1H-Indazol-3-yl)methylene]-6-methoxy-7-(morpholinomethyl)benzofuran-3(2H)-one]",
